According to patent publication US4874779A, “Mitomycin phosphate derivatives” (priority 1988, dated 1989):
pIC50: −log10 of the molar value. Counter-ions that a name gives are not always drawn. Like-named read-outs stand apart in the source and are kept apart here.

Columns and labels:
[1] = system: human lung tumor cell line H2981; test: Cytotoxicity to H2981 cells by inhibition of 3H-Thy incorporation; assay type: cell-based; settings: for cytotoxic activity (in words): without alkaline phosphatase pre-treatment; for pIC50: Homo sapiens
Description: Cytotoxicity of compounds V, IIa, and mitomycin C was determined using human lung tumor cell line H2981. Thus a suspension of H2981 cells in Iscove's medium (IMDM) containing 10% fetal calf serum were plated into 96-well microtiter plates (10,000 cells/well). After 1 hr, the medium was removed, a pH 7.2 phosphate buffered saline solution (PBS) of the drug was added, and incubation at 37° C. was commenced for 1 hour. The cells were then washed twice, and incubation was continued an additional 17 hours, followed by a 6 hour pulse with ^3 H-Thy (1.0 μCi/well). The plates were frozen at -70° C. to detach the cells, and the cells were harvested onto glass fiber discs. The filters were counted on a Beckman 3701 scintillation counter. Inhibition of ^3 H-Thy incorporation was used as an indicator for cytotoxic effects.

[2] = Relative toxicity in Balb C nu/nu mice; assay type: in vivo; settings: for LD50 / MTD at 600 h: mouse, in vivo, ip; for LD50: two equal doses spaced 4 days apart; for MTD at 600 h: 4 equal doses over a 25 day period, read-out: total amount tolerated
Description: The relative toxicities of IIa and V were determined in Balb C nu/nu mice. […] Total amounts of up to 40 mg/kg of IIa and 100 mg/kg of V were tolerated if given in 4 equal doses over a 25 day period.

human lung tumor H2981 = test: Antitumor activity against subcutaneous human lung tumor H2981 xenograft in Balb C nu/nu female mice; assay type: in vivo; settings: for time required to reach an average tumor volume of 750 mm^3: IIa 0.2 ml of 1 mg/ml, V 0.2 ml of 3 mg/ml, i.p. days 15, 21, 31, 37, untreated control 27 days
Description: The arrows indicate the days on which drugs were given.
Antitumor activity of the compound of Example 1 (V) was evaluated in Balb C nu/nu female mice (4-6 weeks old, purchased from Life Sciences, St. Petersburg, Fl) implanted subcutaneously with a xenograft of human lung tumor H2981 in the right hind flank. Compound IIa served as positive control. Drug treatment was initiated on day 15 (day 0 being the day of tumor implant) when the tumors were approximately 100 mm^3 in volume. 0.2 Ml of the test compounds (1 mg/ml for IIa and 3 mg/ml for V in phosphate-buffered saline) were injected intraperitoneally on days 15, 21, 31, and 37. The results are graphically shown in FIG. 1 and indicate that the time required to reach an average tumor volume of 750 mm^3 was 45 days in mice treated with IIa, 63 days in mice treated with V, and 27 days in the untreated control group.

Compound	cytotoxic activity (in words) ([1]; H2981 cells)	pIC50 ([1]; H2981, 1 h, pH 7.2, read-out: IC50 (cytotoxicity, inhibition of 3H-Thy incorporation))	LD50 [2] [mg/kg]	MTD at 600 h [2] [mg/kg]	time required to reach an average tumor volume of 750 mm^3 (human lung tumor H2981) [days]	pIC50 ([1]; H2981 cells, 1 hour drug exposure in pH 7.2 PBS at 37° C., 17 hours further incubation, 6 hour 3H-Thy pulse, read-out: IC50 (cytotoxicity, inhibition of 3H-Thy incorporation))	cytotoxicity after pre-treatment with alkaline phosphatase (in words) ([1]; H2981 cells, V pre-treated with alkaline phosphatase)	tolerability of prodrug (in words) ([2]; relative to IIa)	antitumor effect compared with the corresponding alcohol (IIa) (human lung tumor H2981; H2981 xenograft, i.p.)
COC12C(COC(N)=O)C3=C(C(=O)C(C)=C(NCCO)C3=O)N1CC1NC12 (centres unmarked) [IIa]	highly cytotoxic	~6.00	45	≥ 40	45				
CO[C@@]12[C@H](COC(N)=O)C3=C(C(=O)C(C)=C(N)C3=O)N1C[C@@H]1N[C@@H]12 [mitomycin C]	highly cytotoxic					~6.00			
COC12C(COC(N)=O)C3=C(C(=O)C(C)=C(NCCOP(=O)(O)O)C3=O)N1CC1NC12 (centres unmarked) [Example 1, 9a-Methoxy-7-[[(phosphonooxy)ethyl]amino]mitosane disodium salt]	A small amount of cytotoxic activity		90	≤ 100	63		cytotoxicity comparable to that of IIa and mitomycin C	significantly more prodrug was tolerated because of its reduced toxicity	stronger antitumor effect than the corresponding alcohol
